Reference: ChEMBL document CHEMBL4842357, “Discovery of Novel Apigenin-Piperazine Hybrids as Potent and Selective Poly (ADP-Ribose) Polymerase-1 (PARP-1) Inhibitors for the Treatment of Cancer” (J Med Chem, 2021)
Each block holds one compound with its values, some of them ahead of it.

Legend:
[1] = target: T1, Poly [ADP-ribose] polymerase 1 (Homo sapiens, UniProt P09874); test: Inhibition of recombinant human full-length PARP-1 using biotinylated substrate
[2] = target: T2, Poly [ADP-ribose] polymerase 2 (Homo sapiens, UniProt Q9UGN5); test: Inhibition of recombinant human full-length PARP-2 using biotinylated substrate
[3] = organism: Homo sapiens; test: Selectivity index, ratio of IC50 for inhibition of recombinant human full-length PARP-2 to IC50 for inhibition of recombinant human full-length PARP-1
[4] = target: T1, Poly [ADP-ribose] polymerase 1; test: Inhibition of PARP-1 (unknown origin)
[5] = target: T2, Poly [ADP-ribose] polymerase 2; test: Inhibition of PARP-2 (unknown origin)
[6] = organism: Homo sapiens; test: Selectivity index, ratio of IC50 for PARP-2 (unknown origin) to IC50 for PARP-1 (unknown origin)
[7] = Toxicity in BALB/c nude mouse xenografted with human A549 cells assessed as change in body weight at 25 to 50 mg/kg, po administered once daily measured for 28 days in presence of CBP; format: organism-based; details: in vivo, 672 h, dose 25-50 mg/kg, time 28 day
[8] = Toxicity in BALB/c mouse xenografted with human SK-OV-3 cells assessed as change in body weight at 25 to 50 mg/kg, po administered once daily measured for 28 days; format: organism-based; details: in vivo, 672 h, dose 25-50 mg/kg, time 28 day
[9] = system: SK-OV-3; test: Antitumor activity against human SK-OV-3 cells xenografted in BALB/c nude mouse assessed as relative tumor volume at 50 mg/kg, po administered once daily for 12 days; format: functional; details: time 12 day
[10] = Cmax in Sprague-Dawley rat at 5 mg/kg, iv; format: ADME, organism-based; parameters: route intravenous, dose 5 mg/kg; details: in vivo
[11] = Cmax in Sprague-Dawley rat at 50 mg/kg, po; format: ADME, organism-based; parameters: route oral, dose 50 mg/kg; details: in vivo
[12] = AUC(0 to infinity) in Sprague-Dawley rat at 5 mg/kg, iv; format: ADME, organism-based; parameters: route intravenous, time infinity, dose 5 mg/kg; details: in vivo
[13] = AUC(0 to infinity) in Sprague-Dawley rat at 50 mg/kg, po; format: ADME, organism-based; parameters: time infinity, route oral, dose 50 mg/kg; details: in vivo
[14] = Tmax in Sprague-Dawley rat at 5 mg/kg, iv; format: ADME, organism-based; details: in vivo
[15] = Tmax in Sprague-Dawley rat at 50 mg/kg, po; format: ADME, organism-based; details: in vivo
[16] = Half life in Sprague-Dawley rat at 5 mg/kg, iv; format: ADME, organism-based; details: in vivo
[17] = Half life in Sprague-Dawley rat at 50 mg/kg, po; format: ADME, organism-based; details: in vivo
[18] = MRT in Sprague-Dawley rat at 5 mg/kg, iv; format: ADME, organism-based; details: in vivo
[19] = MRT in Sprague-Dawley rat at 50 mg/kg, po; format: ADME, organism-based; details: in vivo
[20] = Total plasma clearance in Sprague-Dawley rat at 5 mg/kg, iv; format: ADME, organism-based
[21] = Volume of distribution at steady state in Sprague-Dawley rat at 5 mg/kg, iv; format: ADME, organism-based; details: in vivo, read-out: Vdss
[22] = Oral bioavailability in Sprague-Dawley rat at 50 mg/kg; format: ADME, organism-based; details: in vivo
[23] = Drug distribution in tumor of mouse xenografted with human SK-OV-3 cells at 100 mg/kg, po after 1 hr by LC-MS analysis; format: ADME, organism-based, Neoplasm; details: in vivo
[24] = Drug distribution in liver of mouse xenografted with human SK-OV-3 cells at 100 mg/kg, po after 9 hrs by LC-MS analysis; format: ADME, organism-based; details: in vivo
[25] = Drug distribution in spleen of mouse xenografted with human SK-OV-3 cells at 100 mg/kg, po after 9 hrs by LC-MS analysis; format: ADME, organism-based; details: in vivo
[26] = Acute toxicity in ICR mouse assessed as mortality at 200 to 1000 mg/kg, po administered for 14 days; format: organism-based; details: in vivo, 336 h, dose 200-1000 mg/kg, time 14 day
[27] = Acute toxicity in ICR mouse assessed as abnormalities at 200 to 1000 mg/kg, po administered for 14 days; format: organism-based; details: in vivo, 336 h, dose 200-1000 mg/kg, time 14 day
[28] = Subacute toxicity in ICR mouse assessed as death at 1000 mg/kg, po administered for 14 days; format: organism-based; details: in vivo, 336 h, time 14 day
[29] = Subacute toxicity in ICR mouse assessed as clinical abnormalities at 1000 mg/kg, po administered for 14 days; format: organism-based; details: in vivo, 336 h, time 14 day
[30] = Subacute toxicity in ICR mouse assessed as weight abnormalities at 1000 mg/kg, po administered for 14 days; format: organism-based; details: in vivo, 336 h, time 14 day
[31] = Toxicity in ICR mouse assessed as effect on main visceral organs at 1000 mg/kg, ig administered for 14 days by H and E analysis; format: organism-based; details: in vivo, po, 336 h, time 14 day

T1 sequence (P09874 whole entry): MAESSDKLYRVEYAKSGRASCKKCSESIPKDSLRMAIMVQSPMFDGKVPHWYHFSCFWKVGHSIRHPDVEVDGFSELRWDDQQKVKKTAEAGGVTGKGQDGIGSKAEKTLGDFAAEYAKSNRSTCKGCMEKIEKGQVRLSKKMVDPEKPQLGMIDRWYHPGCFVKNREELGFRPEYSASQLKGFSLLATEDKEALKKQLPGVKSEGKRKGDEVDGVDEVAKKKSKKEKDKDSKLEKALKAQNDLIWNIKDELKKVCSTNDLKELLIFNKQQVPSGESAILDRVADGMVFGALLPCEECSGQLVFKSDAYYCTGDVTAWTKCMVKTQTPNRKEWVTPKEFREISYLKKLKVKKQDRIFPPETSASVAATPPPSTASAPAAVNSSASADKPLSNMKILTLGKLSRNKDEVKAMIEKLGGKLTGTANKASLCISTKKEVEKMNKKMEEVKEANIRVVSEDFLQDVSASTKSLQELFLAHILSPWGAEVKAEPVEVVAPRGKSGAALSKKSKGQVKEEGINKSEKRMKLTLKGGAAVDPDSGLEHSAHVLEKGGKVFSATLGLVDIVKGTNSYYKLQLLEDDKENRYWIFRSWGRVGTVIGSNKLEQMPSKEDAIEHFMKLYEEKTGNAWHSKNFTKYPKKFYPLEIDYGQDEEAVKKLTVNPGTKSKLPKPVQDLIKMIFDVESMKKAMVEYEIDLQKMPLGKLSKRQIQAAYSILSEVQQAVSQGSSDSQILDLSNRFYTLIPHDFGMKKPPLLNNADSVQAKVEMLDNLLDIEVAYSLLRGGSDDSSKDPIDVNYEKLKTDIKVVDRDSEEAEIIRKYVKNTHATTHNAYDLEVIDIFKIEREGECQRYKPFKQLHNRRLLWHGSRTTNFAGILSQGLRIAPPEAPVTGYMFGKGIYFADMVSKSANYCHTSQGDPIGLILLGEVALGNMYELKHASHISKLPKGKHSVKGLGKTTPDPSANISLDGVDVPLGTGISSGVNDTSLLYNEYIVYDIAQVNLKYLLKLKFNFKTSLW
T2 sequence (Q9UGN5 whole entry): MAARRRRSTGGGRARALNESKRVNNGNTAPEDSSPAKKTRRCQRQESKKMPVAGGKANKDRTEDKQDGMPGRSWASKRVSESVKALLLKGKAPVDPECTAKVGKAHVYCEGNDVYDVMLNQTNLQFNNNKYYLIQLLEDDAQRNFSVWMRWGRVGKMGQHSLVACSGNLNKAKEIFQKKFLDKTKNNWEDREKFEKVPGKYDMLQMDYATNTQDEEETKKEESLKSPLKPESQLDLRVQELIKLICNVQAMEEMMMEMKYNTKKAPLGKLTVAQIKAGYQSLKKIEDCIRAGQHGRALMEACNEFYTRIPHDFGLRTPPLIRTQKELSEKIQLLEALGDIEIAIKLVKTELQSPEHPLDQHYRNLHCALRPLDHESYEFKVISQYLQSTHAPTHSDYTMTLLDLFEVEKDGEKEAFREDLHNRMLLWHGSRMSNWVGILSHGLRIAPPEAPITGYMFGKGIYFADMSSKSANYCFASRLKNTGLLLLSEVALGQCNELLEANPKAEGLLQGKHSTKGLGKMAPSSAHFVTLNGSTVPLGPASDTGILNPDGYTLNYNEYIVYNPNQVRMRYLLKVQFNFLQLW

IC50 [1]: 0.187 µM
IC50 [2]: 10.3 µM
Ratio IC50 [3]: 55.2
IC50 [4]: 0.0002 µM
IC50 [5]: 10.3 µM
Ratio IC50 [6]: 52
SMILES: O=c1cc(-c2ccc(O)c(-c3c(O)cc(O)c4c(=O)cc(-c5ccc(O)cc5)oc34)c2)oc2cc(O)cc(O)c12 [AMENTOFLAVONE]

SMILES: Cl.Cl.O=c1cc(-c2ccc(O)cc2)oc2c(CN3CCN(Cc4cccs4)CC3)c(O)cc(O)c12
Activity [7]: Non-Toxic
Activity [8]: Non-Toxic
Activity [9]: 0.74
Cmax [10]: 2880 ng/mL
Cmax [11]: 470 ng/mL
AUC(0-inf) [12]: 1370 ng·h/mL
AUC(0-inf) [13]: 3630 ng·h/mL
Tmax [14]: 1.8 min
Tmax [15]: 1.5 h
half-life [16]: 3.19 h
half-life [17]: 10.7 h
MRT [18]: 3.14 h
MRT [19]: 13 h
clearance [20]: 60.5 mL/min/kg
Vd [21]: 11.4 L/kg
bioavailability [22]: 26.5%
Drug uptake [23]: Active
Drug uptake [24]: Active
Drug uptake [25]: Not Active
Activity [26]: Non-Toxic
Activity [27]: Non-Toxic
Activity [28]: Non-Toxic
Activity [29]: Non-Toxic
Activity [30]: Non-Toxic
Activity [31]: Non-Toxic
